Measured values taken from patent US6043279A, “Compounds having selective activity for retinoid X receptors, and means for modulation of processes mediated by retinoid X receptors” (priority 1997, dated 2000).

Experiments:
[1] = tested on: myeloma cell line (RPMI 8226); test: thymidine incorporation assay in myeloma cell line RPMI 8226; type: cell-based; details: RPMI 8226 myeloma cells, FIG. 11
Text: This assay examines the incorporation of radiolabeled thymidine into DNA, and by determining the ability of a compound to inhibit thymidine incorporation into DNA, provides a measure of cell proliferation.

HL60 = test: thymidine incorporation assay in HL60 cells; type: cell-based
RXRα/PPAR = target: T1, RXRα/PPAR (UniProt P19793+P23204); test: co-transfection of RXRα and PPAR into HepG2 cells, target reporter gene; type: cell-based; details: HepG2, read-out: Normalized Response (%)
T1 construct: expressed in transfected cells; host or cells: HepG2
T1 sequence (P23204 whole entry): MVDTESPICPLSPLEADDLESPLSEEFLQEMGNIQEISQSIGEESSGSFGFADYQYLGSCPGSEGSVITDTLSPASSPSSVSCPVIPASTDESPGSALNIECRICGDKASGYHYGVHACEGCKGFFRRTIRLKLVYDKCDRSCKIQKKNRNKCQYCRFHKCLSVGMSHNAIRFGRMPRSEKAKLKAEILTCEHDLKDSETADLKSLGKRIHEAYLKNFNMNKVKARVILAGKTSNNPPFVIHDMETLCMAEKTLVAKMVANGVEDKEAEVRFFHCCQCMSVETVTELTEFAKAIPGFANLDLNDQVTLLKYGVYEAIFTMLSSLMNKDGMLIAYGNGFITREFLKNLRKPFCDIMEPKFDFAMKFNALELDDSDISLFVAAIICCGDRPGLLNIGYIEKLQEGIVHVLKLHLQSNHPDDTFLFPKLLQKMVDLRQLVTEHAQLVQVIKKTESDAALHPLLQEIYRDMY
T1 sequence (P19793 whole entry): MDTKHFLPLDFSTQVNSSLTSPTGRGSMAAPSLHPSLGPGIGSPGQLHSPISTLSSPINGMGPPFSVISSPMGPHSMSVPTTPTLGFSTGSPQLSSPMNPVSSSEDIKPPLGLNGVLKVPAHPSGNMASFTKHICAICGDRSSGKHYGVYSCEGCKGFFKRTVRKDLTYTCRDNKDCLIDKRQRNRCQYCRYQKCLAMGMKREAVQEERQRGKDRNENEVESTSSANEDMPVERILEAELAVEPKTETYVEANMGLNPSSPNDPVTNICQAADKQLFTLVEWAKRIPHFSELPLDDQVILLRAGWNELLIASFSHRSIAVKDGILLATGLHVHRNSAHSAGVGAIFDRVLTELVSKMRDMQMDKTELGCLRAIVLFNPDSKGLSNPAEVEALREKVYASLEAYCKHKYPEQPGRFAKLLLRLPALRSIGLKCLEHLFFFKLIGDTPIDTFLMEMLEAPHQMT
Text: Specifically, peroxisome proliferator-activated receptor (PPAR) is a member of the intracellular receptor super family that plays a role in the modulation of lipid homeostasis. […] These agents, called peroxisome proliferators, have been used in man as hypolipidemic agents.

RXRβ = target: T2, RXRβ (Mus musculus, UniProt P28704); test: co-transfection (cis-trans) assay in CV-1 cells, RXRβ; type: cell-based; details: CV-1, read-out: Efficacy RXRβ
T2 construct: expressed in transfected cells; host or cells: CV-1 (monkey kidney)
T2 sequence (P28704 1-520): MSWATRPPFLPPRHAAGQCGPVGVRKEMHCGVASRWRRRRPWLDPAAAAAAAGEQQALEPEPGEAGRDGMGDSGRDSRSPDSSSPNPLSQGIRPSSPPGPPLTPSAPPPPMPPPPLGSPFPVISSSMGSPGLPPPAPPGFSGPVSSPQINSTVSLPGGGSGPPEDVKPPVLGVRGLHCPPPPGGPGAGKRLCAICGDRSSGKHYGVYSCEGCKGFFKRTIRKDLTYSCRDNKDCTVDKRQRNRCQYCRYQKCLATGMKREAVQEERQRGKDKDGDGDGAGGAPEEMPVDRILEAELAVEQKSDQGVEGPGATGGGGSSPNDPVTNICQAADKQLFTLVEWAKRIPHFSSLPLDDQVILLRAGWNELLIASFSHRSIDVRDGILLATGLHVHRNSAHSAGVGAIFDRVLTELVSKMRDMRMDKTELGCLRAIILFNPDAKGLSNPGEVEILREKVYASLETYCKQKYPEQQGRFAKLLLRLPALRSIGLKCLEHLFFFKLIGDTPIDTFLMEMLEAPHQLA
Text: The co-transfection assay provides a mechanism to evaluate the ability of a compound to modulate the transcription response initiated by an intracellular receptor. […] Berger et al., J. Steroid Biochem. Molec.
Briefly, the co-transfection assay involves the introduction of two plasmids by transient transfection into a retinoid receptor-negative mammalian cell background. The first plasmid contains a retinoid receptor cDNA and directs constitutive expression of the encoded receptor. The second plasmid contains a cDNA that encodes for a readily quantifiable protein, e.g., firefly luciferase or chloramphenicol acetyl transferase (CAT), under control of a promoter containing a retinoid acid response element, which confers retinoid dependence on the transcription of the reporter. In this co-transfection assay, all retinoid receptors respond to all-trans-retinoic acid in a similar fashion. This assay can be used to accurately measure efficacy and potency of retinoic acid and synthetic retinoids as ligands that interact with the individual retinoid receptor subtypes.
Accordingly, synthetic retinoid compounds of the current invention were evaluated for their interaction with retinoid receptor subtypes using the co-transfection assay in which CV-1 cells were co-transfected with one of the retinoid receptor subtypes, a reporter construct, and an internal control to allow normalization of the response for transfection efficiency. The following example is illustrative.
Retinoids: All-trans-retinoic acid (RA) and 13-cis-retinoic acid (13-cis-RA) were obtained from Sigma. […] Retinoids were dissolved in dimethylsulfoxide for use in the transcriptional activation assays.
Co-transfection Assay In CV-1 Cells: A monkey kidney cell line, CV-1, was used in the cis-trans assay. Cells were transfected with two plasmids. […] The cis-vector contains an easily assayable gene product, in this case the firefly luciferase, coupled to a retinoid-responsive promoter, i.e., an RARE or RXRE. Addition of retinoic acid or an appropriate synthetic retinoid results in the formation of a retinoid-RAR or -RXR complex that activates the expression of luciferase gene, causing light to be emitted from cell extracts. The level of luciferase activity is directly proportional to the effectiveness of the retinoid-receptor complex in activating gene expression. This sensitive and reproducible co-transfection approach permits the identification of retinoids that interact with the different receptor isoforms.
Cells were cultured in DMEM supplemented with 10% charcoal resin-stripped fetal bovine serum, and experiments were conducted in 96-well plates. […] Cells were transfected for 6 h and then washed to remove the precipitate. The cells were then incubated for 36 h with or without retinoid. After the transfection, all subsequent steps were performed on a Beckman Biomek Automated Workstation. […] All determinations were performed in triplicate in two independent experiments and were normalized for transfection efficiency by using β-galactosidase as the internal control. […] Efficacy values less than 5% are not statistically different than the 0% background.

Rhino mice = test: comedolytic test on Rhino mice; type: in vivo
RXR = test: apoA1 "A" site reporter co-transfection in HepG-2 cells with RXR; type: cell-based
Text: (§1) This work focused on studying the transcriptional properties of the retinoid receptors RAR and RXR on a reporter molecule (e.g., luciferase) under control of a basal promoter containing the RXR response element from the apoA1 gene ("A" site). Plasmid constructs coding for the various receptors were transfected into a human hepatocyte cell line (HepG-2) along with the reporter plasmid. […] Widom et al., Mol. Cell. […] After transfection, treatment, harvest, and assay, the data obtained was normalized to transfected beta-galactosidase activity so as to control for transfection efficiency.

RAR = test: apoA1 "A" site reporter co-transfection in HepG-2 cells with RAR; type: cell-based
Text: as §1

[2] = rats
Procedure: Male Sprague-Dawley rats (160-200 gram) were obtained from Harlan. Animals were fed standard laboratory diets (Harlan/Teklad) and kept in an environmentally controlled animal house with a light period lasting from 6 a.m. to 6 p.m. Animals were treated with drugs prepared as suspensions in olive oil.
Plasma was separated and stored at 4° C. for evaluation of plasma total cholesterol and high density lipoprotein cholesterol (HDL-cholesterol).
Plasma total cholesterol was measured enzymatically utilizing Boeringer Mannheim Diagnostics High Performance Cholesterol Methods with an ABBOTT VP Bichromatic Analyzer. HDL cholesterol was measured after preparation of the HDL-containing fraction by heparin-manganese precipitation of plasma. HDL-cholesterol in this fraction was estimated as mentioned earlier. All HDL separations were checked for contamination by other lipoproteins with agarose gel electrophoresis.
Serum samples were taken and analyzed by Western Blot using antisera specific to rat apoA1.

[3] = tested on: ME180, a squamous cell carcinoma; test: growth of ME180 tumor cells (cell number); type: cell-based, human
Text: (§2) The effects on growth of these cells were monitored by evaluation of cell number, and also by evaluation of growth in semi-solid medium for the RPMI18226 cell line. […] The therapeutic index is defined as the ratio of efficacy to toxicity of a compound.

[4] = tested on: RPMI18226, a multiple myeloma; test: growth of RPMI18226 tumor cells (cell number, semi-solid medium); type: cell-based, human; details: cell number and growth in semi-solid medium
Text: as §2

C/C(=C\c1ccc(C(=O)O)cc1)c1ccc2c(c1)C(C)(C)CCC2(C)C [TTNPB]
concentrations providing essentially no effect on cell proliferation [1]: less than 10^-11 M

CC1=C(/C=C/C(C)=C/C=C/C(C)=C/C(=O)O)C(C)(C)CCC1 [all-trans-retinoic acid, All-trans-retinoic acid]
cellular proliferation (thymidine incorporation) (HL60): inhibits thymidine incorporation

CC(C)(Oc1ccc(Cl)cc1)C(=O)O [clofibric Acid, clofibric acid]
Emax (RXRα/PPAR): 100%

CC1=C(/C=C/C(C)=C\C=C\C(C)=C\C(=O)O)C(C)(C)CCC1 [9-cis-retinoic acid, reference compound]
Emax (RXRβ): 140%

Cc1cc2c(cc1C(=O)c1ccc(C(=O)O)cc1)C(C)(C)CCC2(C)C [3-methyl-TTNCB, 4-[(3,5,5,8,8-pentamethyl-5,6,7,8-tetrahydro-2-naphthyl)carbonyl]benzoic acid]
inhibition of utriculi diameter (Rhino mice; 0.1% solution, topical, Rhino mice, FIG. 9): approximately 50%
irritation to the skin of Rhino mice (Rhino mice; compared with 9-cis- or all-trans-retinoic acid): less irritating to the skin of Rhino mice than 9-cis- or all-trans-retinoic acid
activation of apoA1 "A" site reporter with RXR (RXR): activation in the system
effect on apoA1 "A" site reporter with RAR (RAR): no effect

C=C(c1ccc(C(=O)O)cc1)c1cc2c(cc1C)C(C)(C)CCC2(C)C [3-methyl-TTNEB, 4-[1-(3,5,5,8,8-pentamethyl-5,6,7,8-tetrahydro-2-naphthyl)ethenyl]benzoic acid]
total cholesterol ([2]; 4 days): an increase due to the increase of the HDL-cholesterol fraction
plasma HDL-cholesterol at the lowest dose ([2]; 4 days, 0.3 mg/kg i.p.): significant increases
circulating apoA1 levels ([2]; orally 3 mg/kg daily for four days, Western Blot of serum): significant increase in circulating apoA1 levels
cell growth [3]: inhibit cell growth in a concentration-dependent manner
cell growth [4]: inhibit cell growth in a concentration-dependent manner
